Reference: patent publication US8367658B2, “Pyrazin-2-yl-pyridin-2-yl-amine and pyrazin-2-yl-pyrimidin-4-yl-amine compounds and their use” (Cancer Research Technology Limited, priority 2007, dated 2013)
pIC50: −log10 of the molar value. Values joined by “and” are separate entries in the source; they are usually repeats but may differ in a detail not shown here. Identical values can stand only once.

Biological target: T1, CHK1 (Homo sapiens, UniProt O14757)
T1 sequence (O14757 1-476): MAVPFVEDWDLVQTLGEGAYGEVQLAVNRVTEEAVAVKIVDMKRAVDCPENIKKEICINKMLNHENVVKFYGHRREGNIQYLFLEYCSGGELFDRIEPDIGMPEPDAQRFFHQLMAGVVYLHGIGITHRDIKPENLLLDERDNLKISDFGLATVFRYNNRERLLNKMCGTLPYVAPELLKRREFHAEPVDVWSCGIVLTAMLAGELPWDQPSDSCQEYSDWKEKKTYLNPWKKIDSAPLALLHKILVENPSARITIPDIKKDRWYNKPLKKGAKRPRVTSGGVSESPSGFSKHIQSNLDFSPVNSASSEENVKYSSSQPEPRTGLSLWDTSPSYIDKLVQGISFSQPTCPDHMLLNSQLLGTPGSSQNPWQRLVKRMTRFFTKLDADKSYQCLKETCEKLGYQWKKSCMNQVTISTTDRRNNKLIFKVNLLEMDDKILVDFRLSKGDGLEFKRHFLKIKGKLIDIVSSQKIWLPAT
Assay: CHK1 kinase function inhibition assay (DELFIA, phosphorylation of a CDC25C peptide)
Format: biochemical
Conditions: CHK1 1 nM, ATP 30 μM, 30 minutes at room temperature
Description: Measurement of Inhibition of CHK1 Kinase Function
CHK1 kinase function was measured in a DELFIA® assay in order to monitor phosphorylation of a CDC25C peptide using a specific phospho antibody.
The reaction mixture was incubated for 30 minutes at room temperature and then stopped by the addition of buffer (125 μL) containing 40 mM EDTA, 0.05% Tween 20, 0.1% BSA in TBS (10× concentrate, Sigma). An aliquot (100 μL) of the stopped reaction mixture was transferred to a black neutravidin-coated plate (Perbio) and incubated for 1 hour on a shaker (Titertek, Flow Laboratories) at room temperature. […] The plates were washed a further four times with wash buffer before the addition of enhancement solution (100 μL/well, PerkinElmer Life Sciences).

Structure (SMILES) | pIC50
N#Cc1cnc(Nc2cc(NCC3CCCNC3)c(N3CC[C@H](O)C3)cn2)cn1 (stereo partly drawn) [Compound Y-060, 5-(5-((S)-3-Hydroxypyrrolidin-1-yl)-4-(piperidin-3-ylmethylamino)pyridin-2-ylamino)pyrazine-2-carbonitrile] | ≥ 7.00
N#Cc1cnc(Nc2cc(NCC3CCCNC3)c(-n3cccc3)cn2)cn1 (stereo not drawn) [Compound Y-056, 5-(4-(Piperidin-3-ylmethylamino)-5-(1H-pyrrol-1-yl)pyridin-2-ylamino)pyrazine-2-carbonitrile] | ≥ 7.00
Cc1ccccc1-c1cnc(Nc2cnc(C#N)cn2)cc1NC1CCN(C)CC1 [Compound Y-121, 5-(4-(1-Methylpiperidin-4-ylamino)-5-o-tolylpyridin-2-ylamino)pyrazine-2-carbonitrile] | 6.00 to 7.00
CN1CCC(Nc2cc(Nc3cnc(C#N)cn3)ncc2Cl)CC1 [Compound Y-108, 5-(5-Chloro-4-(1-methylpiperidin-4-ylamino)pyridin-2-ylamino)pyrazine-2-carbonitrile] | ≥ 7.00
CN(CC1CCNCC1)c1cc(Nc2cnc(C#N)cn2)ncn1 [Compound Z-031, 5-(6-(Methyl(piperidin-4-ylmethyl)amino)pyrimidin-4-ylamino)pyrazine-2-carbonitrile] | 5.00 to 6.00
CN1CCC(Nc2cc(Nc3cnc(C#N)cn3)ncc2-c2ccccc2)CC1 [Compound Y-111, 5-(4-(1-Methylpiperidin-4-ylamino)-5-phenylpyridin-2-ylamino)pyrazine-2-carbonitrile] | ≥ 7.00
COc1nc(Nc2cc(NCC3CCNCC3)ncn2)cnc1C#N [Compound Z-046, 3-Methoxy-5-(6-(piperidin-4-ylmethylamino)pyrimidin-4-ylamino)-pyrazine-2-carbonitrile] | 5.00 to 6.00
N#Cc1cnc(Nc2cc(NC[C@@H]3CCCNC3)c(N)cn2)cn1 [Compound Y-048, (R)-5-(5-Amino-4-(piperidin-3-ylmethylamino)pyridin-2-ylamino)pyrazine-2-carbonitrile] | ≥ 7.00
N#Cc1cnc(Nc2cc(NCC3CCCNC3)c(-n3ccc(CN4CCOCC4)c3)cn2)cn1 (stereo not drawn) [Compound Y-062, 5-(5-(3-(Morpholinomethyl)-1H-pyrrol-1-yl)-4-(piperidin-3-ylmethylamino)pyridin-2-ylamino)pyrazine-2-carbonitrile] | ≥ 7.00
COCc1cccc(-c2cnc(Nc3cnc(C#N)cn3)cc2NC2CCN(C)CC2)c1 [Compound Y-115, 5-(5-(3-(methoxymethyl)phenyl)-4-(1-methylpiperidin-4-ylamino)pyridin-2-ylamino)pyrazine-2-carbonitrile] | ≥ 7.00
CN(C)CC(=O)Nc1cnc(Nc2cnc(C#N)cn2)cc1NC1CCNCC1 [Compound Y-016, N-(6-(5-Cyanopyrazin-2-ylamino)-4-(piperidin-4-ylamino)pyridin-3-yl)-2-(dimethylamino)acetamide] | ≥ 6.00 and 6.00 to 7.00
COCc1ccc(-c2cnc(Nc3cnc(C#N)cn3)cc2NC[C@H]2CNCCO2)cc1 [Compound Y-156, (R)-5-(5-(4-(Methoxymethyl)phenyl)-4-(morpholin-2-ylmethylamino)pyridin-2-ylamino)pyrazine-2-carbonitrile] | ≥ 7.00
CCCN1CCC(Nc2cc(Nc3cnc(C#N)cn3)ncc2C(=O)OC)CC1 [Compound Y-077, Methyl 6-(5-cyanopyrazin-2-ylamino)-4-(1-propylpiperidin-4-ylamino)nicotinate] | ≥ 7.00
N#Cc1cnc(Nc2cc(NCC3CCNCC3)c(C(=O)N3CCOCC3)cn2)cn1 [Compound Y-089, 5-(5-(Morpholine-4-carbonyl)-4-(piperidin-4-ylmethylamino)pyridin-2-ylamino)pyrazine-2-carbonitrile] | 5.00 to 6.00
N#Cc1cnc(Nc2cc(NCC3CCNCC3)c(CCCCO)cn2)cn1 [Compound Y-142, 5-(5-(4-hydroxybutyl)-4-(piperidin-4-ylmethylamino)pyridin-2-ylamino)pyrazine-2-carbonitrile] | 6.00 to 7.00
